Data from patent US6492350B2, “Chitin oligosaccharides and/or chitosan oligosaccharides for preventing or treating common cold or treating pain” (JDC (Hawaii) Inc., priority 2000, dated 2002).

Legend:
[1] = Clinical study of CCOS analgesia in volunteers with painful conditions (short-form McGill Pain Questionnaire); type: in vivo, human; conditions: patient
Description: This modification is a hybrid form utilizing both a Visual Analogue Scale rating pain from 0 (no pain) to 5 (excruciating) as well as a pain questionnaire rating the pain from 0 (no pain) to 3 (severe) along with the following descriptions:
To test the effectiveness of chitin chitosan oligosaccharide (CCOS) in providing satisfactory analgesia in both nociceptive and neuropathic pain, a clinical study was conducted with volunteers suffering from a variety of rather common painful conditions (see Table 11). Pain can be an extremely subjective phenomena; there is no laboratory or radiological test to measure its severity or indeed even its presence as described elsewhere p. 8). […] “There is a whole literature of validated, subjective tools that are absolutely reliable” (Melvin C. Gitlin, MD Professor of Anesthesiology, Tulane University School of Medicine and Director of the Pain Management Center at the Tulane University Hospital Clinic) The conditions of all of the volunteers in this study have been documented by physicians, in some cases more than one, and their pain substantiated. […] Our methods, utilizing human subjects is equally valid and acceptable (36). (see Modified McGill Pain form used as the basis to evaluate pain).

[2] = in vivo, po; cited from earlier work

With `CC(=O)Oc1ccccc1C(=O)O` [ASA] the “Degree of Pain Reduction” value ([1]; acute pharangitis, nociceptive (inflammatory), CCOS 150 mg STAT then 100 mg PRN) was “no significant improvement”.
For `CC(=O)Nc1ccc(O)cc1` [Tylenol, Acetaminophen], the “Degree of Pain Reduction” value ([1]; low back pain secondary to strain, nociceptive, CCOS 400 mg STAT then 300 mg QID) was “little or no effect”.
In the case of Chitin, the absorbed orally [2] is listed as 20-40%.
